Laboratory results from PMC3293897, “Diphenyl Urea Derivatives as Inhibitors of Transketolase: A Structure-Based Virtual Screening” (PLoS ONE, 2012).
pIC50: −log10 of the molar value. Read-outs that look alike come from different tables or passages of the source.

How the values were obtained:
[1] = target: T1, Transketolase from cell extract (Homo sapiens, UniProt P29401); assay: Transketolase activity in cell extract (enzyme-linked NADH oxidation, spectrophotometric/fluorimetric); assay type: biochemical; details: for inhibitory activity class (Figure 2): Figure 2 grouping
T1 construct: approximately 300 µg of protein cell extract used for the determination of transketolase enzyme activity; endogenous in cells; host or cells: Cultured cells
T1 sequence (P29401 1-623): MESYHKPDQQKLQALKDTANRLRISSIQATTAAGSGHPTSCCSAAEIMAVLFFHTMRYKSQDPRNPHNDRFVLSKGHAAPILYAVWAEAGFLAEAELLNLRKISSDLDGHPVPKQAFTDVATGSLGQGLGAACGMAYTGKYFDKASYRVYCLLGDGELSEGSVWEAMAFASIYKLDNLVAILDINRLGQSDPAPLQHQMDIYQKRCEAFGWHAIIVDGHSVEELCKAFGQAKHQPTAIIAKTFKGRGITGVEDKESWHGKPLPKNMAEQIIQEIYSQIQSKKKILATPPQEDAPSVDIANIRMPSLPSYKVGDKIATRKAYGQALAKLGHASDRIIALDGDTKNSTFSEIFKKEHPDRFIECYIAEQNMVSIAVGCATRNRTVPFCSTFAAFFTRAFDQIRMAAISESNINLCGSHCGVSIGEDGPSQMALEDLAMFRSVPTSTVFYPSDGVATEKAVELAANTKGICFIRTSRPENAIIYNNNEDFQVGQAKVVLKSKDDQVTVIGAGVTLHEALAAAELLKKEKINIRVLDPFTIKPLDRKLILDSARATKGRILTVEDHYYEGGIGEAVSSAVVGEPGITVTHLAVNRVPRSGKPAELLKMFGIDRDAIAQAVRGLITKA
Method: Cell cultures were washed with PBS, detached from the flasks using 0.025% trypsin-EDTA and then resuspended in lysis buffer (1 mM dithiothreitol, 1 mM EDTA, 0.02% Triton X-100, 0.02% sodium deoxycholate, 0.2 mM phenylmethylsulfonyl fluoride, 1% sodium azide and 20 mM Tris-HCl, pH 7.5). Cells were homogenized using a laboratory sonicator (1/2 Liter Branson 200 Ultrasonic bath, 5 min, 40 kHz, 4°C) and immediately ultracentrifuged at 105000×g for 1 hour at 4°C. The supernatant was separated and approximately 300 µg of protein cell extract used for the determination of transketolase enzyme activity using a Cobas Mira Plus chemistry analyzer (HORIBA ABX, Montpellier, France) or a spectrofluorimeter Kontron SFM-25 (Bio-Tek Instruments, VT, United States).
Transketolase (EC 2.2.1.1) activity was determined using the enzyme linked method described by Smeets and colleagues. Briefly, cell extract and inhibitors were added to a cuvette containing 5 mM MgCl2, 0.2 U×mL^−1 glycerophsphate dehydrogenase-triosephosphate isomerase (from rabbit muscle), 0.2 mM NADH, 0.1 mM thiamine pyrophosphate (TPP) and 50 mM Tris-HCl, pH 7.6 at 37°C. The reaction was initiated by the addition of 300 µL substrate mixture (see below) per mL of cuvette volume. The oxidation of NADH, which is directly proportional to transketolase activity, was followed by the decrease in absorbance at 340 nm (spectrophotometric method) or in fluorescence at 450 nm when excited at 330 nm (fluorimetric method) before and after the addition of the different compounds tested. A blank with all the assay components but the sample was performed in each experiment by measuring the oxidation of NADH. The substrate mixture was prepared by dissolving 50 mM ribose-5-phosphate in 50 mM Tris-HCl, pH 7.6, and adding 0.05 IU ribulose-5-phosphate-3-epimerase (from baker's yeast) and 0.25 IU phosphoriboisomerase (from spinach). The substrate mixture was continuously stirred and heated for 1 hour at 37°C and then kept at −20°C until use.
Protein concentration of cell extracts was determined using the BCA Protein Assay (Pierce Biotechnology, Rockford, IL) to calculate the specific activity of the transketolase enzyme.

HT29 cells = assay: MTT cell viability assay, HT29; assay type: cell-based, human
Method: (§1) HCT116 human colon carcinoma cells (gift from Dr Capellà, Institut Català d'Oncologia, Barcelona, Spain) were grown in DMEM∶HAM F12 (1∶1), supplemented with 10% heat-inactivated foetal calf serum (FCS) (PAA Laboratories, Pasching, Austria), L-glutamine (2 mM), pyruvic acid (1 mM), non-essential aminoacids (1%) and antibiotics: 100 U×mL^−1 penicillin and 100 µg×mL^−1 streptomycin. HT29 human colon adenocarcinoma cells (obtained from the American Type Culture Collection -ATCC-) were grown in Dulbecco's Modified Eagle's Medium, 25 mM D-glucose, 4 mM L-glutamine supplemented with 10% heat-inactivated FCS, and antibiotics: 100 U×mL^−1 penicillin and 100 µg×mL^−1 streptomycin (Invitrogen, Paisley, UK). All cell cultures were carried out at 37°C in a humidified atmosphere with 5% CO2. Subconfluent monolayers of cells were used in all experiments.
(§2) Cell viability was determined using the MTT assay, which is based on the ability of live cells to cleave the tetrazolium ring, thus producing formazan, which absorbs at 570 nm. 5000 cells/well HT29 cells or 1700 cells/well HCT116 cells were seeded into 96-well plates and incubated for 24 h prior to the addition of the different compounds at different concentrations, in triplicate. After incubation for 72 h, the supernatant was aspirated and 100 µL of filtered MTT (0.5 mg/mL) was added to each well. Following 1 h of incubation, the supernatant was removed and the formazan precipitated was dissolved in DMSO. Relative cell viability was measured by absorbance at 550 nm on an ELISA plate reader (Tecan Sunrise MR20-301, TECAN, Austria). Concentrations that inhibited cell growth by 50% (IC50) after treatment were determined.

HCT116 cells = assay: MTT cell viability assay, HCT116; assay type: cell-based, human
Method: as §1, §2

[2] = Homo sapiens, HT-29, 72 h incubation, read-out: IC50 Cell viability (HT29 cells)
[3] = Homo sapiens, HCT-116, 72 h incubation, read-out: IC50 Cell viability (HCT116 cells)

SMILES | pIC50 [1] | inhibitory activity class (Figure 2) [1] | transketolase inhibition in the enzymatic assay (in words) ([1]; cell extract) | pIC50 (HT29 cells; [2]) | pIC50 (HCT116 cells; [3]) | pIC50 ([1]; cell extract, compound concentration varied 50 to 300 µM, read-out: IC50 Transketolase from cell extract) | pIC50 (HT29 cells; 72 h incubation, read-out: IC50 cell viability (HT29)) | pIC50 (HCT116 cells; 72 h incubation, read-out: IC50 cell viability (HCT116))
Cc1c(Cl)cccc1NC(=O)Nc1ccc(CC(=O)O)cc1 [T2C] | < 3.70 | Inactives | inactive | 3.70 | 3.70 | – | – | –
O=C(Nc1ccccc1)Nc1cc(Cl)c([N+](=O)[O-])cc1O [T2B] | – | Actives | – | 5.22 | 4.92 | 4.00 | – | –
Cc1ncc(C[n+]2csc(CCO)c2C)c(=O)[nH]1 [oxythiamine, reference compound] | – | – | – | – | – | – | 2.10 | 2.10
O=[N+]([O-])c1cccc(NC(=S)Nc2cc(Cl)ccc2O)c1 [T2E] | < 3.70 | Inactives | poorly active | 4.70 | 4.89 | – | – | –
CCc1ccc(NC(=O)Nc2cccc([N+](=O)[O-])c2)c(CC)c1 [T2D] | < 3.70 | Inactives | no inhibition of transketolase | < 3.70 | < 3.70 | – | – | –

Continued, in another order:

pIC50 [1] | inhibitory activity class (Figure 2) [1] | transketolase inhibition in the enzymatic assay (in words) ([1]; cell extract) | pIC50 (HT29 cells; [2]) | pIC50 (HCT116 cells; [3]) | SMILES | pIC50 ([1]; cell extract, compound concentration varied 50 to 300 µM, read-out: IC50 Transketolase from cell extract) | pIC50 (HT29 cells; 72 h incubation, read-out: IC50 cell viability (HT29)) | pIC50 (HCT116 cells; 72 h incubation, read-out: IC50 cell viability (HCT116))
3.82 | Actives | – | 4.82 | 4.77 | Cc1ccc([N+](=O)[O-])cc1NC(=O)Nc1cccc2c(O)cccc12 [T2A] | – | – | –
< 3.70 | Inactives | no activity | – | – | Cc1c(Cl)cccc1NC(=O)Nc1cccc(O)c1 [T2F] | – | – | –
3.70 | Actives | – | 5.00 | 5.05 | Cc1c(Cl)cccc1NC(=O)Nc1cc([N+](=O)[O-])ccc1O [T2] | – | – | –
